In patent publication EP4755881A1 (Wuhan Createrna Science and Technology Co., Ltd., priority 2023, dated 2025):

Target: T1, LPAR1 receptor (Homo sapiens, UniProt Q92633)
T1 construct: expressed in transfected cells
Test: LPAR1 in vitro biological activity evaluation 2: HTRF cAMP kit (LANCE Ultra cAMP Kit) assay in CHO stable transfected cell line expressing the LPAR1 receptor
Assay type: cell-based
Details: Table 2, read-out: LPAR1 inhibitory activity IC50
Protocol: The inhibitory effects of the compounds of the present disclosure on the LPAR1 receptor were determined using a Chinese hamster ovary (CHO) stable transfected cell line expressing the LPAR1 receptor, through the HTRF cAMP kit (LANCE® Ultra cAMP Kit).
The CHO cell line expressing the LPAR1 receptor was cultured in F-12 medium (Gibco, 117650054) containing 10% fetal bovine serum (FBS, Avantor, 76294-180) and 0.2 mg/mL hygromycin B (Solarbio, H8080-1g) at 37°C with 5% CO2. Cell passage, recovery, and cryopreservation were performed according to conventional methods. The stable transfected cell line was cultured to 80% confluence, digested with trypsin to collect cells, counted, and then seeded at 5 µL/well in a 384-well plate (500 cells/5 µL). The 1× Stimulation Buffer was prepared according to the instructions of the kit (LANCE® Ultra cAMP Kit). 1 µL of the test compound solution (diluted to 10× with 1× Stimulation Buffer) was added to the corresponding experimental wells, followed by centrifugation and incubation at 37°C for 10 minutes. […] 5 µL/well of Eu-cAMP (diluted with Detection buffer) was added to the corresponding experimental wells. 5 µL/well of ULight™-anti-cAMP antibody (diluted with Detection buffer) was added to the corresponding experimental wells, followed by centrifugation and incubation at room temperature for 1 hour. After the incubation was completed, the readings at 665 nm and 620 nm under 330 nm excitation were detected using the HTS high-throughput drug screening multifunctional microplate reader (BMG, PHERAstar FSX). The IC50 values were calculated by fitting nonlinear regression (dose response - variable slope) using GraphPad Prism software.

T1 sequence (Q92633 whole entry): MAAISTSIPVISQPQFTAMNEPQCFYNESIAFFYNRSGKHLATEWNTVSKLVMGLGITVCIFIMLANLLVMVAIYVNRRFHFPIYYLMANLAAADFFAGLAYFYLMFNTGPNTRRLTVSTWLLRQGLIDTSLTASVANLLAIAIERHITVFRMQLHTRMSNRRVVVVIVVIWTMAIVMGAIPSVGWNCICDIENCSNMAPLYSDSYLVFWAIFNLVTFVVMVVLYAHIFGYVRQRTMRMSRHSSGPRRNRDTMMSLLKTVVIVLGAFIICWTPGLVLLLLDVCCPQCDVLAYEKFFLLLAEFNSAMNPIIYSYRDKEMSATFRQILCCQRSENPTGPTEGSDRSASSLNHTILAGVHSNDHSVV

| SMILES | IC50 |
| --- | --- |
| CCc1nc(-c2nnn(C)c2NC(=O)O[C@H](C)C(F)(F)CC)ccc1C#CC1(CC(=O)O)CC1 [compound 233] | 163 nM |
| CCC(F)(F)[C@@H](C)OC(=O)Nc1c(C)noc1-c1ccc(C#C[C@@H]2CCC[C@H]2C(=O)O)c(C)n1 [compound 485] | 52.3 nM |
| Cc1nc(-c2nnn(C)c2COC(=O)N(C)CCC(C)(F)F)ccc1C#C[C@@H]1CCC[C@H]1C(=O)O (single isomer, unassigned) [282-A] | 87.6 nM |
| COC1CC(C#Cc2ccc(-c3nnn(C)c3NC(=O)O[C@H](C)c3ccccc3Cl)nc2C)(CC(=O)O)C1 (stereo partly shown) [compound 465] | 30.9 nM |
| CCCN(C)C(=O)OCc1c(-c2ccc(C#CC3(CC(=O)O)CC3)c(C(F)(F)F)n2)nnn1C [compound 101] | 205 nM |
| CCC(F)(F)[C@@H](C)OC(=O)Nc1c(-c2ccc(C#CC3(CC(=O)O)CC3)c(C(F)(F)F)n2)nnn1C [compound 208, (R)-2-(1-((6-(5-((((3,3-difluoropentan-2-yl)oxy)carbonyl)amino)-1-methyl-1H-1,2,3-triazol-4-yl)-2-(trifluoromethyl)pyridin-3-yl)ethynyl)cyclopropyl)acetic acid] | 44.1 nM |
| Cc1nc(-c2nnn(C)c2NC(=O)O[C@H](C)C23CC(C2)C3)ccc1C#CC1(CC(=O)O)CC(F)(F)C1 [compound 432] | 16.6 nM |
| CCC[C@@H](C)OC(=O)Nc1c(-c2ccc(C#CC3(CC(=O)O)CC(OCC)C3)c(C)n2)nnn1C (stereo partly shown) [compound 427] | 59 nM |
| Cc1nc(-c2nnn(C)c2NC(=O)O[C@H](C)CC2CC2)ccc1C#C[C@@H]1CC[C@H]1C(=O)O [compound 248] | 72.2 nM |
| CCC(F)(F)[C@@H](C)OC(=O)Nc1c(-c2ccc(C#CC3(CC(=O)O)CCC3)c(C)n2)nnn1C [compound 323] | 14.8 nM |
| CCc1nc(-c2nnn(C)c2NC(=O)O[C@H](C)C(F)(F)CC)ccc1C#CC1(CC(=O)O)CC2(CC2)C1 [compound 504] | 6.4 nM |
| CCC[C@@H](C)OC(=O)Nc1c(-c2ccc(C#CC3(CC(=O)O)CC(OC)C3)c(C)n2)nnn1C (single isomer, unassigned) [278-B] | 56 nM |
| CCCCN(C)C(=O)OCc1c(-c2ccc(C#CC3(CC(=O)O)CC(OCC)C3)c(C)n2)nnn1C (stereo not shown) [compound 114] | 9.2 nM |
| CCC(F)(F)[C@@H](C)OC(=O)Nc1c(C)noc1-c1ccc(C#CC2(CC(=O)O)CC(OC)C2)c(C)n1 (stereo partly shown) [compound 488] | 51.5 nM |
| Cc1nc(-c2nnn(C)c2NC(=O)O[C@H](C)CC(C)C)ccc1C#C[C@@H]1CC(F)(F)C[C@H]1C(=O)O [compound 299] | 13.6 nM |
| CCC(F)(F)[C@@H](C)OC(=O)Nc1c(-c2ccc(C#CC3(CC(=O)O)CC(OC)C3)c(F)n2)noc1C (stereo partly shown) [compound 491] | 27.1 nM |
| CCOC1CC(C#Cc2ccc(-c3nnn(C)c3NC(=O)O[C@H](C)C(F)(F)CC)nc2Cl)(CC(=O)O)C1 (stereo partly shown) [compound 467] | 16.5 nM |
| CCC[C@@H](C)OC(=O)Nc1c(-c2ccc(C#CC3(P(=O)(O)O)CC4(CC4)C3)c(C)n2)nnn1C [compound 510] | 32.1 nM |
| CCCCN(C)C(=O)OCc1c(-c2ccc(C#CC3(CC(=O)O)CC(OC)C3)c(C)n2)nnn1C (stereo not shown) [compound 113] | 19.6 nM |
